Where “and” joins values, the source holds several entries; their conditions need not be identical. Equal values may be shown once. ± gives the expanded uncertainty stated by the source.
Assay: mn = molality of the nth substance listed, in mol/kg
Conditions: Fluid (supercritical or subcritical phases), Vibrating tube method, m1 = 0.2392

O=S=O [sulfur dioxide] + O=C=O
Conditions | mass density
324.07 K, 2523.7 kPa | 45.99 ± 0.08 kg/m3
324.07 K, 2524.8 kPa | 46.06 ± 0.08 kg/m3
324.07 K, 5037.9 kPa | 106.08 ± 0.2 kg/m3
324.07 K, 5047.5 kPa | 106.41 ± 0.2 kg/m3
324.07 K, 7549.5 kPa | 197.2 ± 0.56 kg/m3
324.07 K, 7550.3 kPa | 197.25 ± 0.56 kg/m3
324.07 K, 10068 kPa | 396.72 ± 1.2 kg/m3
324.07 K, 10080 kPa | 398.55 ± 1.2 kg/m3
324.07 K, 12568 kPa | 620.49 ± 1.4 kg/m3 and 620.47 ± 1.4 kg/m3
324.07 K, 15086 kPa | 705.24 ± 1.1 kg/m3
324.07 K, 15087 kPa | 705.32 ± 1.1 kg/m3
324.07 K, 17615 kPa | 754.18 ± 0.94 kg/m3
324.07 K, 20140 kPa | 788.89 ± 0.83 kg/m3 and 788.93 ± 0.83 kg/m3
324.07 K, 22662 kPa | 816.06 ± 0.76 kg/m3
324.07 K, 22664 kPa | 816.05 ± 0.76 kg/m3
324.07 K, 25179 kPa | 838.47 ± 0.72 kg/m3
324.07 K, 25185 kPa | 838.49 ± 0.72 kg/m3
324.07 K, 27695 kPa | 857.63 ± 0.69 kg/m3
324.07 K, 27705 kPa | 857.68 ± 0.69 kg/m3
324.07 K, 30187 kPa | 874.31 ± 0.66 kg/m3
324.07 K, 30220 kPa | 874.51 ± 0.66 kg/m3
324.07 K, 32689 kPa | 889.28 ± 0.66 kg/m3
324.07 K, 32729 kPa | 889.51 ± 0.66 kg/m3
324.07 K, 35178 kPa | 902.77 ± 0.69 kg/m3
324.07 K, 35212 kPa | 902.97 ± 0.69 kg/m3
349.39 K, 2532.7 kPa | 41.96 ± 0.08 kg/m3
349.39 K, 2537.9 kPa | 42.01 ± 0.08 kg/m3
349.39 K, 5043.8 kPa | 91.74 ± 0.15 kg/m3
349.39 K, 5046.4 kPa | 91.91 ± 0.15 kg/m3
349.39 K, 7518.6 kPa | 153.18 ± 1.6 kg/m3
349.39 K, 7555.2 kPa | 154.4 ± 1.6 kg/m3
349.39 K, 10069 kPa | 236.57 ± 0.65 kg/m3
349.39 K, 10075 kPa | 236.62 ± 0.65 kg/m3
349.39 K, 12580 kPa | 346.19 ± 1.1 kg/m3
349.39 K, 12586 kPa | 346.44 ± 1.1 kg/m3
349.39 K, 15085 kPa | 467.39 ± 1.3 kg/m3
349.39 K, 15089 kPa | 467.53 ± 1.3 kg/m3
349.39 K, 17619 kPa | 564.01 ± 1.3 kg/m3
349.39 K, 17622 kPa | 564.12 ± 1.3 kg/m3
349.39 K, 20144 kPa | 630.6 ± 1.1 kg/m3
349.39 K, 20146 kPa | 630.67 ± 1.1 kg/m3
349.39 K, 22669 kPa | 678.62 ± 1.1 kg/m3
349.39 K, 22671 kPa | 678.72 ± 1.1 kg/m3
349.39 K, 25189 kPa | 715.52 ± 0.99 kg/m3
349.39 K, 25190 kPa | 715.6 ± 0.99 kg/m3
349.39 K, 27706 kPa | 745.39 ± 0.95 kg/m3
349.39 K, 27707 kPa | 745.51 ± 0.95 kg/m3
349.39 K, 30211 kPa | 770.4 ± 0.92 kg/m3
349.39 K, 30216 kPa | 770.37 ± 0.92 kg/m3
349.39 K, 32707 kPa | 791.84 ± 0.9 kg/m3
349.39 K, 32708 kPa | 791.77 ± 0.9 kg/m3
349.39 K, 35200 kPa | 810.62 ± 0.91 kg/m3
349.39 K, 35202 kPa | 810.71 ± 0.91 kg/m3
375.06 K, 2549.7 kPa | 38.37 ± 0.07 kg/m3
375.06 K, 2555.7 kPa | 38.44 ± 0.07 kg/m3
375.06 K, 5060.6 kPa | 81.6 ± 0.13 kg/m3
375.06 K, 5068.6 kPa | 81.91 ± 0.13 kg/m3
375.06 K, 7564.3 kPa | 131.73 ± 0.23 kg/m3
375.06 K, 7579.7 kPa | 132.31 ± 0.23 kg/m3
375.06 K, 10049 kPa | 189.67 ± 0.39 kg/m3
375.06 K, 10080 kPa | 190.27 ± 0.39 kg/m3
375.06 K, 12595 kPa | 258.2 ± 0.62 kg/m3
375.06 K, 12612 kPa | 259 ± 0.62 kg/m3
375.06 K, 15080 kPa | 333.08 ± 0.88 kg/m3
375.06 K, 15093 kPa | 333.81 ± 0.88 kg/m3
375.06 K, 17617 kPa | 411.4 ± 1.1 kg/m3
375.06 K, 17623 kPa | 411.26 ± 1.1 kg/m3
375.06 K, 20142 kPa | 482.1 ± 1.3 kg/m3
375.06 K, 20148 kPa | 481.92 ± 1.3 kg/m3
375.06 K, 22667 kPa | 541.64 ± 1.3 kg/m3
375.06 K, 22672 kPa | 541.46 ± 1.3 kg/m3
375.06 K, 25185 kPa | 590.31 ± 1.3 kg/m3
375.06 K, 25191 kPa | 590.18 ± 1.3 kg/m3
375.06 K, 27702 kPa | 630.33 ± 1.2 kg/m3
375.06 K, 27708 kPa | 630.2 ± 1.2 kg/m3
375.06 K, 30214 kPa | 663.73 ± 1.2 kg/m3
375.06 K, 30222 kPa | 663.67 ± 1.2 kg/m3
375.06 K, 32714 kPa | 692.09 ± 1.2 kg/m3
375.06 K, 32726 kPa | 692.34 ± 1.2 kg/m3
375.06 K, 35206 kPa | 716.75 ± 1.2 kg/m3
375.06 K, 35223 kPa | 717.02 ± 1.2 kg/m3
399.99 K, 2560.5 kPa | 35.13 ± 0.07 kg/m3
399.99 K, 2564.5 kPa | 35.68 ± 0.07 kg/m3
399.99 K, 5074.4 kPa | 74.46 ± 0.12 kg/m3
399.99 K, 5079.5 kPa | 74.06 ± 0.12 kg/m3
399.99 K, 7580.3 kPa | 116.91 ± 0.2 kg/m3
399.99 K, 7584.9 kPa | 117.53 ± 0.2 kg/m3
399.99 K, 10090 kPa | 164.56 ± 0.32 kg/m3
399.99 K, 10112 kPa | 164.41 ± 0.32 kg/m3
399.99 K, 12594 kPa | 215.96 ± 0.47 kg/m3
399.99 K, 12608 kPa | 216.99 ± 0.48 kg/m3
399.99 K, 15081 kPa | 271.09 ± 0.66 kg/m3
399.99 K, 15090 kPa | 272.1 ± 0.66 kg/m3
399.99 K, 17615 kPa | 329.58 ± 0.86 kg/m3
399.99 K, 17617 kPa | 330.16 ± 0.86 kg/m3
399.99 K, 20141 kPa | 387.34 ± 1.1 kg/m3 and 386.76 ± 1.1 kg/m3
399.99 K, 22663 kPa | 440.42 ± 1.2 kg/m3
399.99 K, 22665 kPa | 441.02 ± 1.2 kg/m3
399.99 K, 25183 kPa | 488.79 ± 1.4 kg/m3
399.99 K, 25184 kPa | 489.39 ± 1.4 kg/m3
399.99 K, 27700 kPa | 532.13 ± 1.4 kg/m3
399.99 K, 27701 kPa | 531.53 ± 1.4 kg/m3
399.99 K, 30211 kPa | 569.48 ± 1.4 kg/m3
399.99 K, 30212 kPa | 568.87 ± 1.4 kg/m3
399.99 K, 32703 kPa | 601.95 ± 1.4 kg/m3
399.99 K, 32723 kPa | 601.61 ± 1.4 kg/m3
399.99 K, 35199 kPa | 630.66 ± 1.4 kg/m3
399.99 K, 35210 kPa | 630.23 ± 1.4 kg/m3

From the NIST ThermoML archive (doi:10.1016/j.fluid.2018.08.012)
